Assay results taken from paper PMC6136660 (Steroids, 2018).

Key:
[1] = tested on: adrenal axis (first-in-morning serum cortisol); assay: First-in-morning serum cortisol (adrenal suppression biomarker), MAD; assay type: in vivo
Procedure: All biomarkers were analyzed using standard immunoassays by PRA.
Adrenal suppression is the consequence of a negative feedback loop between high circulating cortisol and pharmacological glucocorticoids and adrenal function, leading to loss of responsiveness of the adrenal cortex to ACTH. Adrenal suppression can be seen both acutely (hours after a single dose of pharmacological glucocorticoids), and chronically. Chronic treatment with glucocorticoids leads to chronic deficiencies in multiple steroidal hormones, including cortisol, testosterone, 17-hydroxyprogesterone, corticosterone, and 11-deoxycortisol. The resulting hormonal imbalance puts patients at increased risk for a series of safety concerns. One is adrenal crisis (inability to mount a cortisol stress response after trauma, severe illness, or surgery, with ensuring risk for shock and death). Other safety concerns in children include delay of puberty and growth stunting. Adrenal suppression can be measured with first-in-morning serum cortisol, reflective of the endogenous diurnal cortisol peak pre-awakening. Measurement of first-in-morning cortisol 24 h after the last drug dose indicates whether the drug has suppressed the normal diurnal cortisol response.
First in morning serum cortisol levels were measured in all Phase 1 MAD subjects, at baseline prior to first administration of vamorolone or placebo, 24 h after the first dose (acute suppression), and 24 h after 14 days of daily dosing (chronic suppression) (Fig. 4). The two placebo subjects from each dose group were combined into the same panel. […] At 9.0 mg/kg/day, there was a decline in morning cortisol in all subjects, with 1 subject below the 3.6 µg/dL after first dose, and 3 of 6 subjects after two weeks of daily dosing. […] One subject stopped dosing due to mild elevation of liver enzymes, and their morning cortisol returned to normal levels within a few days of cessation of dosing (Fig. 4). Direct head-to-head comparisons to prednisone-treated subjects were not done in this Phase 1 trial, but approximate comparisons can be done to published literature. Both Fleishaker et al. and we tested serum cortisol 24 h after the first dose of drug. Fleishaker et al. studied doses of 2.5, 5, 10, 20 mg, 40 mg, and 60 mg, with an average weight of subjects of 80 kg. […] For vamorolone, the dose groups showing decreases in morning cortisol 24 h after the initial dose were 3 mg/kg (9 µg/dL cortisol), 9 mg/kg (6 µg/dL cortisol), and 20 mg/kg (4 µg/dL cortisol). […] Two week prednisone treatment data for morning cortisol was not published.

[2] = target: T1, mineralocorticoid receptor (Homo sapiens, UniProt P08235); assay: In vitro reporter assays for steroid hormone receptors, agonist and antagonist modes; assay type: cell-based; conditions: in vitro reporter assays (unpublished observations)
T1 sequence (P08235 1-984): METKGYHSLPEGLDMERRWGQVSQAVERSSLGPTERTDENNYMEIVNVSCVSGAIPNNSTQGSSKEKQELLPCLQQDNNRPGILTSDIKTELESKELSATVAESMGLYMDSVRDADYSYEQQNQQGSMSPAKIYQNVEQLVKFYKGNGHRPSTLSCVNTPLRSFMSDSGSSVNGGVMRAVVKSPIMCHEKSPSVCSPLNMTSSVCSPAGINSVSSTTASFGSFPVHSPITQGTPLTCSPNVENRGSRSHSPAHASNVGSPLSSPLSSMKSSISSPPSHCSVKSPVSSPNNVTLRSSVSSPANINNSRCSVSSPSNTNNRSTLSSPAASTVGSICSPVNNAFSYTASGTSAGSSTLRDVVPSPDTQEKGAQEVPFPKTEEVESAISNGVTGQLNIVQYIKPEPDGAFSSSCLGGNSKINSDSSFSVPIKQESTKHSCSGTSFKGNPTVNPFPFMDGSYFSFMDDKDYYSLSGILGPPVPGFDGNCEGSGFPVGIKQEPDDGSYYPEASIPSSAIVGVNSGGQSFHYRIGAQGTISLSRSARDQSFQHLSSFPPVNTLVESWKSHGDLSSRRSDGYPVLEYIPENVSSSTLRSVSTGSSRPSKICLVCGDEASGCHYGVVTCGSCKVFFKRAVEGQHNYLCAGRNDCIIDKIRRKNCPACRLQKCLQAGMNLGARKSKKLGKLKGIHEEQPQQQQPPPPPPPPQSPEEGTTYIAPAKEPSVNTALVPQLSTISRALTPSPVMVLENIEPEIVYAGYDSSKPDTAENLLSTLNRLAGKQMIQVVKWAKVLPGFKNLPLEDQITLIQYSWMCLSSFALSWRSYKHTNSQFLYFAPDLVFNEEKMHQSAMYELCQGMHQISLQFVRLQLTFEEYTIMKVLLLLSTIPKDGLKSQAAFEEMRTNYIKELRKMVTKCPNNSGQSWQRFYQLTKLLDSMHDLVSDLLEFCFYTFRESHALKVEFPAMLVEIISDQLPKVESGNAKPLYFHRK
Description: In addition to the dissociation of […] (lost) and transrepression (retained) activities, vamorolone has changed additional sub-activities of traditional glucocorticoids. Cortisol and pharmacological glucocorticoids show high affinity for the mineralocorticoid receptor, similar to its physiological ligand, aldosterone. Glucocorticoids and aldosterone act as agonists for the mineralocorticoid receptor, and high circulating levels of pharmacological glucocorticoids result in salt imbalance and water weight gain (Cushingoid appearance) via the reninangiotensin system. […] Vamorolone can not be metabolized by 11β-Hydroxysteroid dehydrogenase (11BHSD) isoforms, and thus should show greater stability in aldosterone-responsive cells (e.g. not inactivated as cortisol and glucocorticoids are).

## C[C@@H]1C[C@H]2[C@@H]3CCC4=CC(=O)C=C[C@]4(C)C3=CC[C@]2(C)[C@@]1(O)C(=O)CO [vamorolone]
[1]; 9.0 mg/kg/day, after first dose, n = 6
  subjects with morning cortisol below 3.6 µg/dL (adrenal suppression): 1 subjects
[1]; 9.0 mg/kg/day, after two weeks of daily dosing
  subjects with morning cortisol below 3.6 µg/dL (adrenal suppression): 3 of 6
[1]; 20.0 mg/kg/day, after a single dose
  subjects with morning cortisol below 3.6 µg/dL (adrenal suppression): 4 of 6
[1]; 20.0 mg/kg/day, after two weeks of dosing
  subjects with morning cortisol below 3.6 µg/dL (adrenal suppression): 5/5
[1]; 1.0 or 3.0 mg/kg/day dose groups, acute and 14 days
  adrenal suppression: No evidence of adrenal suppression
[1]; 24 h after the first dose, vamorolone data vs published prednisone data (ref 6)
  difference in potency for acute adrenal suppression (prednisone > vamorolone): 10 fold
[1]; seen at 9.0 and 20.0 mg/kg/day
  adrenal suppression potency relative to traditional glucocorticoids: ~ 1%
[2]
  activity at the mineralocorticoid receptor: potent antagonist
